According to article PMC3651166, “Differential Cytotoxic Activity of a Novel Palladium-Based Compound on Prostate Cell Lines, Primary Prostate Epithelial Cells and Prostate Stem Cells” (PLoS ONE, 2013):

Legend:
[1] = tested on: PNT2-C2, BPH-1, P4E6, PC-3 and LNCaP; assay: Flow cytometry cell cycle analysis, cell lines; type: cell-based, human; settings: PNT2-C2, PC3 and LNCaP cell lines, 48 h post-treatment
Method: (§1) Following drug treatment, floating cells in the media were pooled with adherent cells, which were collected by trypsinisation. Following centrifugation cells were resuspended in 0.5 ml PBS. Cells were fixed in 2 ml ice cold 70% ethanol, which was added in a dropwise fashion while vortexing. Cells were incubated on ice for 30 min then washed in 5 ml PBS and resuspended in 0.4 ml PBS. Following storage at 4°C overnight, 50 µl of RNAse (1 mg/ml) and 50 µl of propidium iodide (1 mg/ml) were added to the cells. Following incubation at 37°C for 30 min the cells were analysed for 2N and 4N DNA content on a flow cytometer (Cyan ADP Analyser, Beckman Coulter).

[2] = tested on: primary prostate epithelial cells; assay: Flow cytometry cell cycle analysis, primary cells; type: cell-based, human; settings: primary prostate epithelial cells, 48 h post-treatment
Method: as §1

cleaved caspase-3 = assay: Western blotting for apoptosis, cell lines; type: cell-based, human; settings: BPH-1, PNT2-C2 and P4E6 cells
Method: (§2) Following drug treatment, cell lysates were harvested using Cytobuster Protein Extraction Reagent (71009, EMD Millipore, Darmstadt, Germany) with protease inhibitors (cOmplete, EDTA-free Protease Inhibitor Cocktail Tablets, Roche Applied Science, UK). 20 µg of protein extract were loaded on 12% SDS-PAGE gels and wet-transferred to a PVDF membrane. Antibodies used include: monoclonal anti-β-actin 1∶5000 (A5316, Sigma-Aldrich), anti-LC3B 1∶3000 (Ab51520, abcam), cleaved caspase-3 (Asp175) 1∶1000 (9661S, Cell Signaling Technology) and secondary antibodies were Rabbit anti-mouse-HRP 1∶10000 (P0260, Dako) and anti-rabbit IgG HRP-linked 1∶5000 (Cell Signaling Technology Inc. 7074S). Kaleidoscope protein marker was run on each gel (161-0324, Bio-Rad).

LC3-II [3] = assay: Western blotting for autophagy, cell lines; type: cell-based, human; settings: BPH-1, PNT2-C2 and P4E6 cells
Method: as §2

LC3-II [4] = assay: Western blotting and immunofluorescence for autophagy, primary cells; type: cell-based, human; settings: all primary cells
Method: γH2AX staining: Cells were seeded onto 8-well collagen I-coated chamber slides. […] After blocking of non-specific binding with 2% BSA in PBS with 1% goat serum for 1 hour at RT, primary antibody (anti-phospho-histone H2A.X (Ser139), clone JBW301, Millipore, Cat no. 05–636) at 1∶1000 dilution was added in 3% BSA in PBS at 4°C overnight followed by three washes in 0.5% BSA in PBS with 0.175% Tween 20. Following incubation with secondary antibody (Goat anti-mouse Alexa Fluor 568, Invitrogen, Cat no. A-11004) at 1∶1000 dilution for 45 min in 3% BSA in PBS and three more washes in the same washing buffer, the slides were mounted using Vectashield with DAPI (Vector Laboratories, Cat no. H-1200). LC3-B staining: Cells were treated as above then fixed with 4% paraformaldehyde, followed by an incubation in 0.3% Triton X-100. After blocking with 10% normal goat serum, cells were incubated in anti-LC3B 1∶200 (Ab51520, abcam) diluted in 0.1% Triton X-100 in PBS. Secondary antibody was Alexa Fluor 568 goat anti-rabbit IgG 1∶1000 (Invitrogen A11011).

[5] = tested on: stem cells (SCs), transit-amplifying cells (TAs) and committed basal cells (CBs); assay: ATP viability assay on fractionated primary cells; type: cell-based; settings: 25 µM, ATP assay, not statistically significant
Method: Epithelial cells from human tumour or BPH materials were cultured for several weeks and the cells treated at very low passages. The cultured basal cell population were trypsinized, resuspended in SCM and then plated on BSA-blocked collagen I-coated plates. […] The cells that attached to substratum were trypsinised, resuspended in MACs buffer and incubated with CD133-microbeads (Cat no. 130-050-801, Miltenyi Biotec Inc., Auburn, CA, USA). MACs MS columns (Cat no. 130-042-201, Miltenyi Biotec Inc., Auburn, CA, USA) were used to select the CD133^+ and CD133^− cells. Finally, the three cell populations were obtained: stem cells (SCs) - α2β1integrin^hi/CD133^+, transit-amplifying cells (TAs) - α2β1integrin^hi/CD133^− and committed basal cells (CBs) - α2β1integrin^lo.
This assay was employed for the bioluminescent determination of the adenosine 5′-triphosphate (ATP) released from fractionated living cells (cancer stem cells, transit amplifying cells and committed basal cells). As ATP is rapidly degraded in dead cells, high intracellular levels provide a selective assay for living cells. The ATP-bioluminescent somatic cell assay kit (FLASC, Sigma-Aldrich, Saint Louis, MO, USA) was used with protocol modifications. Briefly, 50–500 cells per well were seeded in a collagen-coated 96 well plate in triplicate. After treating cells for 72 h, 150 µL of medium was removed from each well. 50 µL of cell extraction reagent was added into each original well. Following 20 min incubation at RT, 50 µL of cell extract was transferred to a white 96-well plate. Finally, 50 µL of ATP assay mix solution was added into the wells and luminescence was read using a plate reader (PolarStar Optima, BMG Labtech, UK). Percent viability was calculated using the formula (% Viability = [(Sample RLU/Control RLU)]x100 where RLU refers to relative light units.

breast cancer cells = tested on: breast cancer cells; parameters: method as in PMID 21885165; settings: in vitro and in vivo; cited from earlier work

SMILES: N.N.[Cl][Pt][Cl] [Cisplatin, reference compound]
- cell cycle effect [1]: S phase arrest
- cell cycle effect [2]: S phase arrest
- cleaved caspase-3 (apoptosis) (cleaved caspase-3): clear induction of cleaved caspase-3
- LC3-II expression (autophagy) (LC3-II [3]): did not significantly change levels of LC3-I and LC3-II
- LC3-II (autophagy) (LC3-II [4]): no significant change in LC3-I or LC3-II levels

SMILES: COc1cc([C@@H]2c3cc4c(cc3[C@@H](O[C@@H]3O[C@@H]5CO[C@@H](C)O[C@H]5[C@H](O)[C@H]3O)[C@H]3COC(=O)[C@H]23)OCO4)cc(OC)c1O [Etoposide, reference compound]
- viability of SCs versus TA and CB cells after treatment [5]: SCs appeared to have increased viability compared to TA and CB cells
- cell cycle effect [1]: S phase arrest
- cell cycle effect [2]: S phase arrest
- cleaved caspase-3 (apoptosis) (cleaved caspase-3): clear induction of cleaved caspase-3
- LC3-II expression (autophagy) (LC3-II [3]): did not significantly change levels of LC3-I and LC3-II

SMILES: O.O.O.O.O=C1[N-]S(=O)(=O)c2ccccc21.O=C1c2ccccc2S(=O)(=O)[N]1[Pd+].c1ccc(-c2cccc(-c3ccccn3)n2)nc1 [[Pd(sac)(terpy)](sac)·4 H2O]
- anti-growth activity (breast cancer cells): powerful anti-growth activity
